Values quoted from earlier work as cited in patent publication US20060287318A1, “Method for treating glaucoma III B” (priority 2000, published 2006).

What was measured:
[1] = literature description of a compound series
[2] = tested on: Aged Rhesus monkeys; settings: drug treated vs. control eye; baseline and pilocarpine-stimulated conditions; reported in the concurrently filed application "Methods for Treating Glaucoma I"
[3] = tested on: Rhesus monkeys; settings: accommodative responses to i.m. pilocarpine; reported in the concurrently filed application "Methods for Treating Glaucoma I"

For `Cc1ccc(C(=O)C[n+]2ccccc2)cc1.[Cl-]` [1-[2-(4-methylphenyl)-2-oxoethyl]-pyridinium chloride], which glucose lowering effect [1] is on record?
Its glucose lowering effect is “inactive”.

Which “improvement in ophthalmologic function (fluid outflow facility)” value [2] does the source give for `Cc1sc[n+](CC(=O)c2ccccc2)c1C.[Cl-]` [4,5-dimethyl-3-(2-oxoethyl-phenethyl)thiazolium chloride] here?
Its value is “improvement has been illustrated”.

What about the improvement in accommodation [3] of the same compound?
Its improvement in accommodation is “Improvement in accommodation has been illustrated”.
